Data set [1] in a line: Lipophilicity, log D of the compound. The format is physicochemical. Particulars: octanol/water.
Data set [2] is described as follows: Aqueous solubility of the compound. The format is physicochemical.
For a further data set, the target named is T1, Thrombopoietin receptor (Homo sapiens, UniProt P40238).
T1 sequence (P40238 whole entry): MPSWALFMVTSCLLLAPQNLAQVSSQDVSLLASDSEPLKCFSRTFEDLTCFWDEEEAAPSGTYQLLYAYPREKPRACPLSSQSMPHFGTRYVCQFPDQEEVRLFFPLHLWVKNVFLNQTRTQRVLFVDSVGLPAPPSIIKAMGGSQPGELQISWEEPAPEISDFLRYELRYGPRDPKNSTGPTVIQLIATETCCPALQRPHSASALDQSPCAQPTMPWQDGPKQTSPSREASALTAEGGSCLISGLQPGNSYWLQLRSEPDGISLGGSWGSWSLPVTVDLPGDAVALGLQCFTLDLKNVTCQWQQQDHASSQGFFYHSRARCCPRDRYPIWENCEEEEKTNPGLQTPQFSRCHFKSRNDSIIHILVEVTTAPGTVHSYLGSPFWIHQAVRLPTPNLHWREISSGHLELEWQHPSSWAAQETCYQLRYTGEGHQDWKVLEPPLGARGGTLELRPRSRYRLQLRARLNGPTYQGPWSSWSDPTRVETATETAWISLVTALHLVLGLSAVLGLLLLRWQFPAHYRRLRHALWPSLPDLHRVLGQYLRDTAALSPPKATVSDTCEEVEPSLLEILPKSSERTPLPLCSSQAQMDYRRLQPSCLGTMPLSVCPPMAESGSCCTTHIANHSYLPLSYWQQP
Nature of the data set: Agonist activity at human thrombopoietin receptor transfected in mouse BAF3 cells assessed as stimulation of beta lactamase activity incubated in dark up to 1 hr. The format is functional, cell-based.

Another data set relates to Rattus norvegicus. Put plainly: Volume of distribution at steady state in rat at 5 mg/kg, po. Set-up: dose 5 mg/kg, route oral. To be noted: in vivo. In kind it is ADME, organism-based.
Data set [3] can be described thus: Half life in rat at 5 mg/kg, po. In kind it is ADME, organism-based. Also on record: dose 5 mg/kg, route oral. Particulars: in vivo.
Data set [4] can be described thus: Bioavailability in rat at 5 mg/kg, po. The format is ADME, organism-based. Particulars: in vivo.
Data set [5] is described as follows: Plasma clearance in rat at 5 mg/kg, po. The format is ADME, organism-based. Also on record: dose 5 mg/kg, route oral.
Data set [6] can be described thus: Plasma clearance in dog at 5 mg/kg, po. The format is ADME, organism-based, Canis lupus familiaris. Set-up: dose 5 mg/kg, route oral.
Data set [7] can be described thus: Half life in dog at 5 mg/kg, po. The format is ADME, organism-based, Canis lupus familiaris. Particulars: in vivo. Also on record: dose 5 mg/kg, route oral.
A short description of data set [8]: Bioavailability in dog at 5 mg/kg, po. In kind it is ADME, organism-based, Canis lupus familiaris. Particulars: in vivo.
Another data set deals with Canis familiaris. Put plainly: Volume of distribution at steady state in dog at 5 mg/kg, po. The format is ADME, organism-based, Canis lupus familiaris. Also on record: dose 5 mg/kg, route oral. To be noted: in vivo.
Data set [9] is described as follows: Permeability across human Caco-2 cell membrane. In kind it is ADME, cell-based. To be noted: read-out: permeability.
Data set [10] in a line: Oral bioavailability in rat. The format is ADME, organism-based. Particulars: in vivo.
Data set [11] in a line: Clearance in iv dosed rat. The format is ADME, organism-based. To be noted: in vivo.
Data set [12] in a line: Protein binding in human plasma. In kind it is ADME, cell-free. To be noted: read-out: PPB.
The nature of data set [13]: Protein binding in dog plasma. The format is ADME, cell-free, Canis lupus familiaris. Particulars: read-out: PPB.
Data set [14] can be described thus: Protein binding in rat plasma. The format is ADME, cell-free. To be noted: read-out: PPB.
The nature of data set [15]: Protein binding in mouse plasma. The format is ADME, cell-free. To be noted: read-out: PPB.
Setting [16] is: aqueous medium, read-out: solubility.

The structures appear in SMILES notation. Values after ≈ are worked out from the molar mass of the structure shown. Bounds are passed on as bounds.

The term logD denotes lipophilicity at a set pH, counting ionised and neutral species. One may read the solubility as the dissolved amount per volume that the medium holds. `O=C(Nc1nc(-c2cccc(OC(F)(F)F)c2F)cs1)c1ccc(Nc2cc(N3CC(O)C3)ncn2)cc1`: the logD in data set [1] is 4.61. In [2] (setting [16]), the solubility is less than 1 µg/mL.

By EC50 is commonly meant the concentration giving half of the maximal effect. With `O=C(Nc1nc(-c2cccc(C(F)(F)F)c2F)cs1)c1cnc(N2CCCCC2)c(Cl)c1`, the pH-dependent lipophilicity (logD) in data set [1] worked out at 7.1. The solubility in data set [2] (setting [16]) was less than 10 µg/mL. The EC50 on Thrombopoietin receptor is greater than 10000 nM.

Consider `O=C(Nc1nc(-c2cccc(C(F)(F)F)c2F)cs1)c1cc(Cl)c(N2CCC(C(=O)O)CC2)c(Cl)c1`, for which the solubility in data set [2] (setting [16]) was less than 10 µg/mL. Moreover, the EC50 at Thrombopoietin receptor is 10 nM.

On to `NCCO.O=C(Nc1nc(-c2cccc(C(F)(F)F)c2F)cs1)c1cnc(N2CCC(C(=O)O)CC2)c(Cl)c1`, for which the solubility in [2] (setting [16]) was determined as 15600 µg/mL.

With `O=C(Nc1nc(-c2cccc(C(F)(F)F)c2F)cs1)c1cnc(N2CCC(C(=O)O)CC2)c(Br)c1`, in [2] (setting [16]), the solubility was less than 10 µg/mL. Besides, on Thrombopoietin receptor, the EC50 was 50 nM.

For `O=C(Nc1nc(-c2cccc(C(F)(F)F)c2F)cs1)c1ccc(N2CCC(C(=O)O)CC2)c(Cl)c1`, the solubility in data set [2] (setting [16]) was less than 10 µg/mL. Further, the EC50 at Thrombopoietin receptor was found to be 56 nM.

Consider `COc1cc(C(=O)Nc2nc(-c3cccc(C(F)(F)F)c3F)cs2)cnc1N1CCC(C(=O)O)CC1`, for which, in data set [2] (setting [16]), the solubility is less than 10 µg/mL. On Thrombopoietin receptor, the EC50 is greater than 1000 nM.

In [1], `C[C@H]1CN(c2ncc(C(=O)Nc3nc(-c4cccc(C(F)(F)F)c4F)cs3)cc2Cl)CC1C(=O)O` (some centres undefined) showed a log distribution coefficient (logD) of 2.79. For the same compound, the solubility in data set [2] (setting [16]) is less than 10 µg/mL. Also, the concentration for a half-maximal effect (EC50) at Thrombopoietin receptor amounted to 43 nM.

As a reminder, the half-life is the time in which the quantity being followed falls by half. The low end stands for rapid decline, the high end for slow decline. A word on the bioavailability: it is dose-corrected exposure relative to a reference, in per cent. A lower bioavailability goes with poor availability. For orientation: CL/F means the apparent clearance, not corrected for the fraction that reaches the circulation. With `CC1=NN(c2ccc(C)c(C)c2)C(=O)/C1=N\Nc1cccc(-c2cccc(C(=O)[O-])c2)c1O.[Na+]`, the Vdss with Rattus norvegicus stood at 0.831 L/kg. The half-life in data set [3] was 1.34 h. The compound further gave a bioavailability in [4] of 66.8%. Also, in data set [5], the apparent clearance CL/F turned out to be 6.87 mL/min/kg.

Regarding `CC1=NN(c2ccc(C)c(C)c2)C(=O)/C1=N\Nc1cccc(-c2cccc(C(=O)O)c2)c1O.NCCO`, the Vdss with Rattus norvegicus came out at 0.579 L/kg; in the data set with Canis familiaris it was 0.228 L/kg. Further, the half-life was 1.29 h in data set [3] and 2.31 h in [7]. Also, the CL/F in [6] is 0.94 mL/min/kg; in data set [5], 6.34 mL/min/kg. Besides, the bioavailability in data set [8] turned out to be 50%; in data set [4], 53.4%. The compound further returned a solubility in [2] (buffer) of less than 1 µg/mL.

Consider `O=C(Nc1nc(-c2cccc(C(F)(F)F)c2F)cs1)c1cnc(N2CCC(C(=O)O)CC2)c(C(F)(F)F)c1`, for which the solubility in data set [2] (setting [16]) was less than 10 µg/mL. Also, the half-maximal effective concentration (EC50) on Thrombopoietin receptor is 134 nM.

For the compound `N#Cc1cc(C(=O)Nc2nc(-c3cccc(C(F)(F)F)c3F)cs2)cnc1N1CCC(C(=O)O)CC1`, the solubility in [2] (setting [16]) is less than 10 µg/mL. Moreover, at Thrombopoietin receptor, the EC50 came out at 138 nM.

In the case of `Cc1cc(C(=O)Nc2nc(-c3cccc(C(F)(F)F)c3F)cs2)cnc1N1CCC(C(=O)O)CC1`, the solubility in data set [2] (setting [16]) is less than 10 µg/mL. Moreover, the EC50 at Thrombopoietin receptor came out at 253 nM.

Regarding `NC(=O)C1CCN(c2ncc(C(=O)Nc3nc(-c4cccc(C(F)(F)F)c4F)cs3)cc2Cl)CC1`, in data set [1], the logD was 4.92. Also, the solubility in data set [2] (setting [16]) was less than 10 µg/mL. For the same compound, on Thrombopoietin receptor, the 50% effective concentration (EC50) turned out to be 28 nM.

Regarding `O=C(Nc1nc(-c2cccc(C(F)(F)F)c2F)cs1)c1cnc(N2CCC(C(=O)O)CC2)c(F)c1`, the solubility in data set [2] (setting [16]) was less than 10 µg/mL. Besides, the EC50 on Thrombopoietin receptor was greater than 1000 nM.

A word on the clearance: it is the rate of elimination divided by the concentration. A low value points to a low capacity for elimination. `O=C(Nc1nc(-c2cccc(C(F)(F)F)c2F)cs1)c1ccc(N2CCC(C(=O)O)C2)nc1` (centres undefined): the Papp in data set [9] came to 4.5 ×10⁻⁶ cm/s. Further, in data set [1], the logD was determined as 1.21. Further, in data set [2] (setting [16]), the solubility is 167 µg/mL (≈ 348 µM). Also, the EC50 on Thrombopoietin receptor was 3300 nM. The same compound came in with a bioavailability in [10] of less than 3%. Moreover, in [11], the clearance is 2.5 mL/min/kg.

The compound `O=C(Nc1nc(-c2cccc(C(F)(F)F)c2F)cs1)c1cnc(N2CCCC(C(=O)O)C2)c(Cl)c1` (centres undefined) gave a logD in data set [1] of 2.94. For the same compound, the solubility in data set [2] (setting [16]) was less than 10 µg/mL. In addition, at Thrombopoietin receptor, the EC50 turned out to be 294 nM.

With `O=C(Nc1nc(-c2cccc(C(F)(F)F)c2F)cs1)c1cnc(N2CCNC(C(=O)O)C2)c(Cl)c1` (centres undefined), the pH-dependent lipophilicity (logD) in data set [1] was 1.88. In addition, the solubility in data set [2] (setting [16]) is less than 10 µg/mL. Moreover, the half-maximal effective concentration (EC50) at Thrombopoietin receptor is 129 nM.

In turn, `NS(=O)(=O)C1CCN(c2ncc(C(=O)Nc3nc(-c4cccc(C(F)(F)F)c4F)cs3)cc2Cl)CC1` displayed a pH-dependent lipophilicity (logD) in [1] of 4.86. Moreover, the solubility in [2] (setting [16]) is less than 10 µg/mL. Besides, the half-maximal effective concentration (EC50) at Thrombopoietin receptor worked out at 34 nM.

For the compound `O=C(Nc1nc(-c2cccc(C(F)(F)F)c2F)cs1)c1cnc(N2CCC(c3nn[nH]n3)CC2)c(Cl)c1`, the pH-dependent lipophilicity (logD) in data set [1] is 3.24. In data set [2] (setting [16]), the solubility was less than 10 µg/mL. At Thrombopoietin receptor, the EC50 was 485 nM.

For `NCCO.O=C(Nc1nc(-c2cccc(C(F)(F)F)c2F)cs1)c1ccc(N2CCC(C(=O)O)C2)nc1` (centres undefined), in data set [2] (setting [16]), the solubility was greater than 2000 µg/mL.

With `O=C(Nc1nc(-c2cccc(C(F)(F)F)c2F)cs1)c1ccc(N2CCC(C(=O)O)CC2)nc1`, the log distribution coefficient (logD) in [1] amounted to 1.83. Further, in data set [2] (setting [16]), the solubility is less than 10 µg/mL. Also, the 50% effective concentration (EC50) at Thrombopoietin receptor turned out to be 430 nM.

As for `O=C(Nc1nc(-c2cccc(C(F)(F)F)c2F)cs1)c1cnc(N2CCC(C(=O)O)CC2)c(Cl)c1`, the fraction unbound in data set [12], in data set [13], in data set [14] and in data set [15] was less than 0.005 each time. In data set [1], this compound returned a pH-dependent lipophilicity (logD) of 2.94. In data set [2] (setting [16]), the solubility is less than 10 µg/mL. In addition, at Thrombopoietin receptor, the EC50 came to 33 nM.

As for `C[C@@H](Nc1ncc(C(=O)Nc2nc(-c3cccc(C(F)(F)F)c3F)cs2)cc1Cl)C(=O)O`, in [1], the logD stood at 1.57. Moreover, the solubility in [2] (setting [16]) was less than 10 µg/mL. In addition, the EC50 at Thrombopoietin receptor stood at 57 nM.

In data set [2] (buffer), `CC1=NN(c2ccc(C)c(C)c2)C(=O)/C1=N\Nc1cccc(-c2cccc(C(=O)O)c2)c1O` [ELTROMBOPAG] came in with a solubility of 14000 µg/mL (≈ 31600 µM).
